Test results published in US20120178738A1, “DIBENZO [B,F] [1,4]OXAZAPINE COMPOUNDS” (ARYX THERAPEUTICS, INC., priority 2007, published 2012).
Like-named read-outs stand apart in the source and are kept apart here.

How the values were obtained:
[1] = target: T1, 5-HT2A receptor (Rattus norvegicus, UniProt P14842); assay: cell-based
T1 construct: Eight strips of tissue (0.5 cm long) were cut. and were mounted in 10 ml organ baths; tissue Charles River Laboratories; host or cells: rat aorta strips, endothelium removed
T1 sequence (P14842 whole entry): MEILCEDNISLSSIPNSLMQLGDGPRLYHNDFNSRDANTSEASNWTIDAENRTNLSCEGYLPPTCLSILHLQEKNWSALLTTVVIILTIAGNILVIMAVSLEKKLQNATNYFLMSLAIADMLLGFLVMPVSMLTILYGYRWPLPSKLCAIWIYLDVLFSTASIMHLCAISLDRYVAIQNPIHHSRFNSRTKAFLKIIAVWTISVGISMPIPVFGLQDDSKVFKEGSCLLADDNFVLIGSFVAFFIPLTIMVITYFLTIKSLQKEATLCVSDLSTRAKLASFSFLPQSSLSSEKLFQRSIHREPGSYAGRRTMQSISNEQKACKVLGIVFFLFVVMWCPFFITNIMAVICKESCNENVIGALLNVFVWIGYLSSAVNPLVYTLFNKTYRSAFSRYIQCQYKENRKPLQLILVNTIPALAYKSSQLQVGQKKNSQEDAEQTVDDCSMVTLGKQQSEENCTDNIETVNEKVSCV
Protocol: The rat aorta (approximately 7 cm) was isolated and removed from the animal (male Sprague Dawley rat, Charles River Laboratories, Hollister, Calif.). The endothelium was removed mechanically. Eight strips of tissue (0.5 cm long) were cut. and were mounted in 10 ml organ baths kept at 37° C. with Krebs solution (composition in mM: NaCl (118.2), KCl (4.6), CaCl2 (2.5), MgSO4 (1.2), KH2PO4 (1.2), NaHCO3 (24.8) and dextrose (10.0)) that was constantly aerated with carbogen gas (95% O2/5% CO2) to obtain a pH of 7.4. The tissues were subjected to a resting tension of 2 g (3 times, 15 minutes apart, equilibrated in Krebs solution). The tissues were then washed 15 minutes later. Ten minutes later, the tissues were then exposed to 0.1 μM phenylephrine. At the maximal effect, 1 μM acetylcholine was added to confirm the absence of endothelium and then washed twice, 2 minutes apart.
Contractions were recorded as changes in tension from baseline and expressed as a percentage of the maximum response of the agonist (5-HT) concentration-effect curve. Agonist concentration-response curves were fitted using a nonlinear iterative fitting program (GraphPad Prism) using the relationship of Parker and Waud (Parker, R. B. and Waud, D. R. (1971). Pharmacological estimation of drug-receptor dissociation constants. Statistical evaluation. I. Agonists. J. Pharmacol. Exp. Ther., 177, 1-12). Agonist potency was expressed as EC50 (molar concentration of agonist producing 50% of the maximum response). Concentration-ratios (CRs) were determined from EC50 values in the presence and absence of antagonist and antagonist affinity estimates (pKB and pA2 values) were determined. All data are expressed as mean±s.e. mean.

[2] = target: T2, human D2s dopamine receptors (Homo sapiens, UniProt P14416); assay: hD2S receptor radioligand binding ([3H]spiperone); conditions: pKi reported on a scale of 1 through 5
T2 construct: expressed in transfected cells; host or cells: Chinese hamster ovary cells (membranes)
T2 sequence (P14416 1-414 isoform P14416-2): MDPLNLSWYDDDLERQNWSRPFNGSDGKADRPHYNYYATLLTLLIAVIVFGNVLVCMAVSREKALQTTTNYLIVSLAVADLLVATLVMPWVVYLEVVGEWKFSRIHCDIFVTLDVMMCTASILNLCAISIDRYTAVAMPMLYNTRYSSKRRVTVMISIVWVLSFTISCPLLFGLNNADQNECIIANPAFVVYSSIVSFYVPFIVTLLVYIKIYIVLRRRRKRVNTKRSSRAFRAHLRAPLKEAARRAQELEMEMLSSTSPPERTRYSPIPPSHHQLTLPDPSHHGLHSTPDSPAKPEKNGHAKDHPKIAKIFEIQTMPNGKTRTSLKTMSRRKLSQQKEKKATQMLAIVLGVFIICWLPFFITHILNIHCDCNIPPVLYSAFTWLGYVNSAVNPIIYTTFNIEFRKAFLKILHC
Protocol: (§1) Consistent with standard competition radioligand binding assays, the methodology was based on displacement of radioligand from tissues (or cell lines) bearing the receptor of interest (Cheng, Y. and Prusoff, W. H. (1973). Biochem. Pharmacol. 22, 3099-3108). The measurements were based on the binding of a single concentration of radiolabeled ligand in the presence of various concentrations of unlabeled ligand.
(§2) Tissues (or cellular plasma membrane fractions) were incubated in the presence of radioligand at equilibrium and in the presence of a range of concentrations of the test compounds (which were non-radiolabeled), and the displaced radioligand was separated from the membranes by filtration. Nonspecific binding was assessed by measuring displacement of the radioligand in the presence of a compound known to block binding of the radioligand to the receptor. Finally, the concentration-response relationship for radioligand displacement (corrected for non-specific binding) was used to assess binding of the test compound to the receptor.

[3] = target: T3, human D2L dopamine receptors (Homo sapiens, UniProt P14416); assay: hD2L receptor radioligand binding ([3H]spiperone); conditions: pKi reported on a scale of 1 through 5; read-out: D2L (pKi) (converted)
T3 construct: expressed in transfected cells; host or cells: insect Sf9 cells (membranes)
T3 sequence (P14416 whole entry): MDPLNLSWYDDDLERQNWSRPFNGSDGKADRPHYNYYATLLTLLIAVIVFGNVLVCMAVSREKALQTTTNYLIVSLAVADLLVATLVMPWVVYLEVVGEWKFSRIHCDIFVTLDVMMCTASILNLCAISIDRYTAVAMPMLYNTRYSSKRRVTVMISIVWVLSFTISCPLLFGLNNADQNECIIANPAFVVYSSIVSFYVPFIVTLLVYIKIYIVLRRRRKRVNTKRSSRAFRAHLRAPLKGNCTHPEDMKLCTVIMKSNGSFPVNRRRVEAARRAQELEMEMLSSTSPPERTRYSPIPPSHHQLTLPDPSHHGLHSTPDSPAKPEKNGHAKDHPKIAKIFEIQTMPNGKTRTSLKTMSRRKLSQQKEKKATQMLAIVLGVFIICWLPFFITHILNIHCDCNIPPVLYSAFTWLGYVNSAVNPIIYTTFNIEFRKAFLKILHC
Protocol: as §1, §2

[4] = target: T4, human 5HT1A receptors (Homo sapiens, UniProt P08908); assay: h5-HT1A receptor radioligand binding ([3H]8OH-DPAT); conditions: pKi reported on a scale of 1 through 5
T4 construct: expressed in transfected cells; host or cells: Chinese hamster ovary cells (membranes)
T4 sequence (P08908 1-422): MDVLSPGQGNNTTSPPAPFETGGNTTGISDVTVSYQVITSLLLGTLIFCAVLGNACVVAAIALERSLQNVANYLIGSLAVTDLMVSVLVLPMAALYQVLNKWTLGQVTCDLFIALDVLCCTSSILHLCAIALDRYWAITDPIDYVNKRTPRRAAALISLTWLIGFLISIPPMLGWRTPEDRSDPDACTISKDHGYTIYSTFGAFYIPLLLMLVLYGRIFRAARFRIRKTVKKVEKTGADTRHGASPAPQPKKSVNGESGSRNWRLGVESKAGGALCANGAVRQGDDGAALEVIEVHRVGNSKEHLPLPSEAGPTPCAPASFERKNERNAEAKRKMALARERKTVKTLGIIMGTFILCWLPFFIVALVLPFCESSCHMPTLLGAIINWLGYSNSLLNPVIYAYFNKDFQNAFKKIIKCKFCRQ
Protocol: as §1, §2

[5] = target: T5, human 5HT2C receptors (Homo sapiens, UniProt P28335); assay: h5-HT2C receptor radioligand binding ([3H]Mesulergine); conditions: pKi reported on a scale of 1 through 5
T5 construct: expressed in transfected cells; host or cells: human embryo kidney cells (membranes)
T5 sequence (P28335 33-458): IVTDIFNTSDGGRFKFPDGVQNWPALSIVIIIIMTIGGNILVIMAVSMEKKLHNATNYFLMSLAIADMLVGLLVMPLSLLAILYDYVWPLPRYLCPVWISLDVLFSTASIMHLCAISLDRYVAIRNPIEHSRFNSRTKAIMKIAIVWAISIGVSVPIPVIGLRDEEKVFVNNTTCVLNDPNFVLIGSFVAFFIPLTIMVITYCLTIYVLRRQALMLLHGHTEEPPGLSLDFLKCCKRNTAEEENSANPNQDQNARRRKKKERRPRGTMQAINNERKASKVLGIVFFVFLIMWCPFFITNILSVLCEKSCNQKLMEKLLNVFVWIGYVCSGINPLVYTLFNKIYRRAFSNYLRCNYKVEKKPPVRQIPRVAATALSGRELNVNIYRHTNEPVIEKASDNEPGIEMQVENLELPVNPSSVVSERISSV
Protocol: The measurements were based on the binding of a single concentration of radiolabeled ligand in the presence of various concentrations of unlabeled ligand.
as §2

[6] = target: T6, human M3 receptors (Homo sapiens, UniProt P20309); assay: hM3 receptor radioligand binding ([3H]NMS)
T6 construct: expressed in transfected cells; host or cells: Chinese hamster ovary cells (membranes)
T6 sequence (P20309 whole entry): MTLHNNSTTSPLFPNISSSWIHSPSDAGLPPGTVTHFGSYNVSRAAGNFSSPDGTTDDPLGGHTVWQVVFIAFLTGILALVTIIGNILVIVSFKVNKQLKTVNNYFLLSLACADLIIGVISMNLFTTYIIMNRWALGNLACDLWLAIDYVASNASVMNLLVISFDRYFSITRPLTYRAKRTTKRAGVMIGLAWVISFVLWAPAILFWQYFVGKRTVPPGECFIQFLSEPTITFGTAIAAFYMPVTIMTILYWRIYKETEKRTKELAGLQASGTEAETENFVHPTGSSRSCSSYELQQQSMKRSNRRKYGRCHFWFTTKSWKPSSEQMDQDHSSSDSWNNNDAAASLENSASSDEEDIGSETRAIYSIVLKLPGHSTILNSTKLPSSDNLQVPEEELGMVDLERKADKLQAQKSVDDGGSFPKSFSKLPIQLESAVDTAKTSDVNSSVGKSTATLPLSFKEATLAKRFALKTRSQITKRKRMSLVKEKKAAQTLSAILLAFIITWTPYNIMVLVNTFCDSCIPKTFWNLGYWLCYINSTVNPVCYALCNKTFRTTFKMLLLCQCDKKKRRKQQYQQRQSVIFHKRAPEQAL
Protocol: as §1, §2

[7] = target: T7, human H1 receptors (Homo sapiens, UniProt P35367); assay: hH1 receptor radioligand binding ([3H]Pyrilamine); conditions: pKi reported on a scale of 1 through 5
T7 construct: expressed in transfected cells; host or cells: Chinese hamster ovary cells (membranes)
T7 sequence (P35367 whole entry): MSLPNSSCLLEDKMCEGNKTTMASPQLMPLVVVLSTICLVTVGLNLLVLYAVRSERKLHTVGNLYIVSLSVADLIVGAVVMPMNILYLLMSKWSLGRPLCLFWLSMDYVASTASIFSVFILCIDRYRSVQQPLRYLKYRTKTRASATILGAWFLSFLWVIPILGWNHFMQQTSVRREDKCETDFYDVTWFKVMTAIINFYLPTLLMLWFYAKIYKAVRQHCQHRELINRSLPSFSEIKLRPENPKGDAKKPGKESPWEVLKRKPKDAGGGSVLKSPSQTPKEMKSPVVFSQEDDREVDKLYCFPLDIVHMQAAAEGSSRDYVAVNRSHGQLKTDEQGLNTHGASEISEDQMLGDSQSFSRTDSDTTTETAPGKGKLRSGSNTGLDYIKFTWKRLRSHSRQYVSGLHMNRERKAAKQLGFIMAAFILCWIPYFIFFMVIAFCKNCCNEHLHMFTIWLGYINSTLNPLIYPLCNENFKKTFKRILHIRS
Protocol: as §1, §2

[8] = target: T8, human M1 receptors (Homo sapiens, UniProt P11229); assay: hM1 receptor radioligand binding ([3H]NMS); conditions: pKi reported on a scale of 1 through 5
T8 construct: expressed in transfected cells; host or cells: Chinese hamster ovary cells (membranes)
T8 sequence (P11229 1-460): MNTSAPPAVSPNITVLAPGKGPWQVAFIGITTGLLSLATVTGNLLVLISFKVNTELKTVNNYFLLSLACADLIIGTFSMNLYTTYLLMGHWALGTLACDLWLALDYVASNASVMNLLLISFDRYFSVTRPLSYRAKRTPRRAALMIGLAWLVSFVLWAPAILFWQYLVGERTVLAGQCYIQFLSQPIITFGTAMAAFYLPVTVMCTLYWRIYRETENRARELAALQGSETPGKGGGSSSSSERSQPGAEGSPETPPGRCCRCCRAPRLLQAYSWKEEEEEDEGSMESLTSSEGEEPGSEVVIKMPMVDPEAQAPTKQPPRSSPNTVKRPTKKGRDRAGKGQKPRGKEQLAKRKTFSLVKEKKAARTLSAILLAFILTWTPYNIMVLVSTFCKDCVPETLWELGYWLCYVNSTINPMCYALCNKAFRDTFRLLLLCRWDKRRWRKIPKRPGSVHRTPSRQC
Protocol: as §1, §2

[9] = target: T9, human 5HT7 receptors (Homo sapiens, UniProt P34969); assay: h5-HT7 receptor radioligand binding ([3H]5-CT)
T9 construct: expressed in transfected cells; host or cells: Chinese hamster ovary cells (membranes)
T9 sequence (P34969 whole entry): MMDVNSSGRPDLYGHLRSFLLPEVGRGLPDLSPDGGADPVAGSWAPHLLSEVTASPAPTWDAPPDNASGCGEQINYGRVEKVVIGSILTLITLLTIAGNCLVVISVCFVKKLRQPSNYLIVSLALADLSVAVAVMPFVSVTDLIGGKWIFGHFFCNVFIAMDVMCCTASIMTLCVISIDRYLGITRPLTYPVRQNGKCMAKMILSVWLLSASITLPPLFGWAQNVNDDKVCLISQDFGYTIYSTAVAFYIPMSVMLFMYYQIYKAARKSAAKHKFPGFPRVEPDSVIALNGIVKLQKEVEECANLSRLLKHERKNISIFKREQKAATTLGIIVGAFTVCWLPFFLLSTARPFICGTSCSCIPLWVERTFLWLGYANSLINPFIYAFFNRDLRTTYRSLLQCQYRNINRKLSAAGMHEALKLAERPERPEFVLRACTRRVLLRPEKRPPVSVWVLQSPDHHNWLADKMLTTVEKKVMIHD
Protocol: as §1, §2

[10] = read-out: 5HT2A (pKb) (converted)
[11] = pKi reported on a scale of 1 through 5, read-out: M3 (pKi) (converted)
[12] = pKi reported on a scale of 1 through 5, read-out: 5HT7 (pKi) (converted)

| Structure (SMILES) | Kb [1, 10] [nM] | Ki [2] [nM] | Ki [3] [nM] | Ki [4] [nM] | Ki [5] [nM] | Ki [6, 11] [nM] | Ki [7] [nM] | Ki [8] [nM] | Ki [9, 12] [nM] | Kb [1] [nM] | Ki [6] [nM] | Ki [9] [nM] |
| --- | --- | --- | --- | --- | --- | --- | --- | --- | --- | --- | --- | --- |
| COC(=O)CC1CN(C2=Nc3cc(Cl)ccc3Oc3ccccc32)CCN1 (centres unmarked) [I, (E)-methyl 2-(4-(8-chlorodibenzo[b,f][1,4]oxazepin-11-yl)piperazin-2-yl)acetate] | 10 to 30.9 | 2510 to 9770 | 2510 to 9770 | 100 to 977 | 10 to 97.7 | > 10000 | 100 to 977 | 5010 to 9770 |  |  |  |  |
| CC(C)(C)COC(=O)C[C@H]1CN(C2=Nc3cc(Cl)ccc3Oc3ccccc32)CCN1 [EA, (S,E)-neopentyl 2-(4-(8-chlorodibenzo[b,f][1,4]oxazepin-11-yl)piperazin-2-yl)acetate] | 10 to 30.9 | 2510 to 9770 |  | 10 to 97.7 | 10 to 97.7 | > 10000 | 100 to 977 | 1260 to 2450 | > 10000 |  |  |  |
| CCOC(=O)CC1CN(C2=Nc3ccc(Cl)cc3Oc3ccccc32)CCN1 (centres unmarked) [H, (E)-ethyl 2-(4-(7-chlorodibenzo[b,f][1,4]oxazepin-11-yl)piperazin-2-yl)acetate] | 31.6 to 97.7 | 631 to 2450 | 631 to 2450 |  | 10 to 97.7 | > 10000 | 100 to 977 | > 10000 |  |  |  |  |
| CC(C)(O)CCOC(=O)C[C@H]1CN(C2=Nc3cc(Cl)ccc3Oc3ccccc32)CCN1 [EC, (S,E)-3-hydroxy-3-methylbutyl 2-(4-(8-chlorodibenzo[b,f][1,4]oxazepin-11-yl)piperazin-2-yl)acetate] | 10 to 30.9 | 631 to 2450 |  | 10 to 97.7 | 10 to 97.7 | > 10000 | 10 to 97.7 | > 10000 | 631 to 1550 |  |  |  |
| O=C(O)CC1CN(C2=Nc3cc(Cl)ccc3Oc3ccccc32)CCN1 (centres unmarked) [Compound E, (E)-2-(4-(8-chlorodibenzo[b,f][1,4]oxazepin-11-yl)piperazin-2-yl)acetic acid] | 31.6 to 97.7 | > 10000 | > 10000 | 1000 to 9770 | 100 to 977 | > 10000 | 100 to 977 | > 10000 |  |  |  |  |
| COC(C)(C)CCOC(=O)C[C@H]1CN(C2=Nc3cc(Cl)ccc3Oc3ccccc32)CCN1 [EB, (S,E)-3-methoxy-3-methylbutyl 2-(4-(8-chlorodibenzo[b,f][1,4]oxazepin-11-yl)piperazin-2-yl)acetate] | 10 to 30.9 | 631 to 2450 |  | ≤ 9.77 | 10 to 97.7 | > 10000 | 10 to 97.7 | 5010 to 9770 | 1580 to 3890 |  |  |  |
| CN1CCN(C2=Nc3cc(Cl)ccc3Oc3ccccc32)C[C@@H]1CC(=O)OC1CCOCC1 [DZ, (S,E)-tetrahydro-2H-pyran-4-yl 2-(4-(8-chlorodibenzo[b,f][1,4]oxazepin-11-yl)-1-methylpiperazin-2-yl)acetate] | 31.6 to 97.7 | 2510 to 9770 |  | 100 to 977 | 100 to 977 | > 10000 |  |  | > 10000 |  |  |  |
| O=C(O)C[C@@H]1CN(C2=Nc3cc(Cl)ccc3Oc3ccccc32)CCN1 [AB, (R,E)-2-(4-(8-chlorodibenzo[b,f][1,4]oxazepin-11-yl)piperazin-2-yl)acetic acid] | 31.6 to 97.7 | > 10000 | > 10000 | > 10000 | 100 to 977 | > 10000 | 100 to 977 |  |  |  |  |  |
| CN1CCN(C2=Nc3cc(Cl)ccc3Oc3ccccc32)C[C@@H]1CC(=O)O[C@@H]1CN2CCC1CC2 [DS, (S)-quinuclidin-3-yl 2-((S)-4-((E)-8-chlorodibenzo[b,f][1,4]oxazepin-11-yl)-1-methylpiperazin-2-yl)acetate] |  | > 10000 |  | 1000 to 9770 | 1000 to 9770 |  |  |  |  | > 100 | > 10000 | > 10000 |
| CCOC(=O)CC1CN(C2=Nc3cc(Cl)ccc3Oc3ccccc32)CCN1C (centres unmarked) [DN, (E)-ethyl 2-(4-(8-chlorodibenzo[b,f][1,4]oxazepin-11-yl)-1-methylpiperazin-2-yl)acetate] | 31.6 to 97.7 | 2510 to 9770 | 2510 to 9770 |  | 100 to 977 | > 10000 | 100 to 977 | 2510 to 4900 |  |  |  |  |
| COC(=O)C[C@@H]1CN(C2=Nc3cc(Cl)ccc3Oc3ccccc32)CCN1 [Compound P, (R,E)-methyl 2-(4-(8-chlorodibenzo[b,f][1,4]oxazepin-11-yl)piperazin-2-yl)acetate] | 31.6 to 97.7 | 2510 to 9770 | 2510 to 9770 | 1000 to 9770 | 100 to 977 | > 10000 | 100 to 977 |  |  |  |  |  |
| C[C@H](O)C[C@H](C)OC(=O)C[C@H]1CN(C2=Nc3cc(Cl)ccc3Oc3ccccc32)CCN1 [EO, (2S,4S)-4-hydroxypentan-2-yl 2-((S)-4-((E)-8-chlorodibenzo[b,f][1,4]oxazepin-11-yl)piperazin-2-yl)acetate] | 10 to 30.9 | 631 to 2450 |  | ≤ 9.77 | 10 to 97.7 | > 10000 | 10 to 97.7 | > 10000 | 631 to 1550 |  |  |  |
| CCOC(=O)C[C@@H]1CN(C2=Nc3cc(Cl)ccc3Oc3ccccc32)CCN1 [O, (R,E)-ethyl 2-(4-(8-chlorodibenzo[b,f][1,4]oxazepin-11-yl)piperazin-2-yl)acetate] | 31.6 to 97.7 | 2510 to 9770 | 2510 to 9770 | 100 to 977 | 10 to 97.7 | > 10000 | 100 to 977 |  |  |  |  |  |
